Source: patent US10695322B2 (priority 2016, dated 2020)

What was measured:
Assay in all cases: biochemical
LdtMt2 = LdtMt2 (Mycobacterium tuberculosis, UniProt I6Y9J2); set-up: species or system M. tuberculosis; conditions: 10 μM LdtMt2, MES pH 6.5, 10° C.
[1] = biological target: LdtMab1, wild-type (MAB_3165c, orthologue of LdtMt1) (Mycobacteroides abscessus, UniProt B1MDC1); type: binding, Mycobacterium abscessus; conditions: Figure 6; ITC, wt, protein 150 μM, ligand 2 mM, pH 8.0, 24° C.
[2] = biological target: LdtMab2, wild-type (MAB_1530, orthologue of LdtMt2; fragment without putative transmembrane domain) (Mycobacteroides abscessus, UniProt B1MMQ4); type: binding, Mycobacterium abscessus; conditions: Figure 6; ITC, wt, protein 150 μM, ligand 2 mM, pH 8.0, 24° C.
LdtMab2, wild-type (MAB_1530, orthologue of LdtMt2; fragment without putative transmembrane domain), sequence (B1MMQ4 32-406): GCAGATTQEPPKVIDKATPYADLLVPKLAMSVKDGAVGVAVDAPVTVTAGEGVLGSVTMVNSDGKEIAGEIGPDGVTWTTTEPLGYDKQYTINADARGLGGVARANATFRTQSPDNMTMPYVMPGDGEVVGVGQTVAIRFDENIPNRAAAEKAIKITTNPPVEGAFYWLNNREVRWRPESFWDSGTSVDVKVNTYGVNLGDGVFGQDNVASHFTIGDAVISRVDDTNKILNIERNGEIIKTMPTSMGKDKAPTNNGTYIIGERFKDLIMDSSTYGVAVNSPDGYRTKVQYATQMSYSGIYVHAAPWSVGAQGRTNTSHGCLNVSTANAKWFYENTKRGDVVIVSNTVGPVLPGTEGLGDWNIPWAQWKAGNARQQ

LdtMt2, sequence (I6Y9J2 56-408 limits assumed): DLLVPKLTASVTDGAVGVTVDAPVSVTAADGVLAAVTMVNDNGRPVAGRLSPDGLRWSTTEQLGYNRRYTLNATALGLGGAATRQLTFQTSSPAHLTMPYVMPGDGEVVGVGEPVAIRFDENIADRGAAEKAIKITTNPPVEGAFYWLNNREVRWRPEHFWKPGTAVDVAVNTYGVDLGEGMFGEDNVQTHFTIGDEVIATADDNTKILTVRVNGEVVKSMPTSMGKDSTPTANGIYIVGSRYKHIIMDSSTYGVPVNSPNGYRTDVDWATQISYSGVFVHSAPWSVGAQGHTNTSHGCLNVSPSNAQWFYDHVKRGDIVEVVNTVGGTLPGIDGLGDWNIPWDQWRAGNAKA
LdtMab1, wild-type (MAB_3165c, orthologue of LdtMt1), sequence (B1MDC1 21-248): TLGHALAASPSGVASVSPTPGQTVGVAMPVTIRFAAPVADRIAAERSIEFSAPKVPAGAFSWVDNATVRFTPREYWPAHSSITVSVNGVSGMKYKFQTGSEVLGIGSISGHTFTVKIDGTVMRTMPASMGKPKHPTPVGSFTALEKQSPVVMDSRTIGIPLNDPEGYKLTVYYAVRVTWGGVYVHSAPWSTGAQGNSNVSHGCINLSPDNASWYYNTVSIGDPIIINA

## C[C@@H](O)[C@H]1C(=O)N2C(C(=O)O)=C(SC3CN(C4=NCCS4)C3)[C@H](C)[C@H]12 [tebipenem]
LdtMt2
  Kapp: 38.4 ± 9.7 µM
[1]
  Kd: 0.82 µM
[2]
  Kd: 6.1 µM
